Structures are written as SMILES.

The values below come from patent US20150218172A1, “Pyrrolo[2,3-D]Pyrimidine Tropomyosin-Related Kinase Inhibitors” (PFIZER LIMITED, priority 2012, published 2015).

T1 sequence (P04629 441-796): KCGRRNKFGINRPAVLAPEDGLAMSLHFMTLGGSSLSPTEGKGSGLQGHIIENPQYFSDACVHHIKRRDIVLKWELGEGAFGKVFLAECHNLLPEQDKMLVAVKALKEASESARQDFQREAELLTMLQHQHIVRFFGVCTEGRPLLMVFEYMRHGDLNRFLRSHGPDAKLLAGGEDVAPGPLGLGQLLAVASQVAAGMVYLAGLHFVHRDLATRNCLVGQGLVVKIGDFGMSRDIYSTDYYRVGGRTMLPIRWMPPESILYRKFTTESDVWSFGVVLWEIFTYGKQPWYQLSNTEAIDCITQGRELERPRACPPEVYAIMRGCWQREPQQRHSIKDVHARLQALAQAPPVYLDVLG

The experiment has as its target T1, TrkA (Homo sapiens, UniProt P04629).
T1 construct: aa 441-796; His; purchased Invitrogen PV3144
As to the kind of experiment: Isolated TRK enzyme assay (HTRF KinEASE-TK kit), PV3144 TrkA enzyme assay. As to conditions: PV3144 TrkA enzyme assay, recombinant His-tagged cytoplasmic domain aa 441-796, 4 nM enzyme, 40 uM ATP; arithmetic mean where more than one reading; read-out: Trka enzyme (IC50). The format is biochemical. The procedure:
Isolated TRK Enzyme assays use the HTRF KinEASE-TK kit (Cisbio Cat#62TK0PEJ) with recombinant His-tagged cytoplasmic domains of each TRK receptor sourced from Invitrogen (see table below). This activity-assay measures the phosphorylation of tyrosine residues within a substrate from the HTRF kit which has been validated by Cisbio for a variety of tyrosine kinases including the TRK receptors.
0.5 mM stock solutions of test compounds are prepared and serially diluted in 100% DMSO. A standard curve using the compound of Example 135 disclosed in WO2005/116035 of 150 uM is also prepared on each test plate. High percentage effect (HPE) is defined by 150 uM (using the compound of Example 135 as disclosed in WO2005/116035) and 0% effect (ZPE) is defined by 100% DMSO. Greiner low volume black plates containing 0.2 ul of serially diluted compound, standard and HPE/ZPE are created using the Bravo nanolitre dispenser.
1X enzyme buffer is prepared from 5X Enzymatic Buffer from the Cisbio KinEASE TK kit using MilliQ water. The buffer is then supplemented with 10 mM MgCl and 2 mM DTT (both from Sigma). In the case of TRKB, the buffer is also supplemented with 125 nM Supplement Enzymatic Buffer (SEB) from the Cisbio kit.
2X FAC of enzyme and 2X FAC ATP diluted in 1X complete enzyme buffer is incubated at room temperature for 20 minutes to preactivate the enzyme. Following this preactivation step, 5 ul/well of enzyme+ATP mix is added using a Multidrop Micro to the assay plate, spotted with 0.2 ul 100% DMSO compound. This is left for 20 mins at room temperature before adding 5 ul of 2 uM TK-substrate-Biotin (from the Cisbio kit) diluted in 1X enzyme buffer (1 uM FAC) using the Multidrop Micro. The reaction is incubated at room temperature for the optimized assay reaction time (see table). The reaction is stopped by adding 10 ul/well HTRF Detection Buffer containing 0.25 uM Streptavidin-XL665 (0.125 uM FAC) and 1:200 TK Antibody-Cryptate using a Multidrop.
After the Detection Reagent addition, plates are covered and incubated at room temperature for 60 minutes. HTRF signal is read using an Envision reader, measured as a ratio of emissions at two different wavelengths, 620 nm and 665 nm. […] Test compound data are expressed as percentage inhibition defined by HPE and ZPE values for each plate. Percentage inhibition in the presence of test compound is plotted against compound concentration on a log scale to determine an IC50 from the resultant sigmoid curve.
Below are TrkA IC50 data generated using the PV3144 TrkA enzyme assay. Where more than one reading was taken, the arithmetic mean is presented.
By IC50 is commonly meant the concentration that inhibits the measured activity by half. Turning to `CC(C)(CO)n1cc(C(=O)c2ccc(C#N)c(NC(=O)Cc3ccc(Cl)cc3)c2)c2cnc(N)nc21` [Example 9, N-(5-{[2-amino-7-(1-hydroxy-2-methylpropan-2-yl)-7H-pyrrolo[2,3-d]pyrimidin-5-yl]carbonyl}-2-cyanophenyl)-2-(4-chlorophenyl)acetamide], the IC50 turned out to be 11.1 nM.
In the case of `Cc1cc(C(F)(F)F)nn1CC(=O)Nc1cc(C(=O)c2cn(C(C)(C)CO)c3nc(N)ncc23)ccc1C#N` [Example 10, N-(5-{[2-amino-7-(1-hydroxy-2-methylpropan-2-yl)-7H-pyrrolo[2,3-d]pyrimidin-5-yl]carbonyl}-2-cyanophenyl)-2-[5-methyl-3-(trifluoromethyl)-1H-pyrazol-1-yl]acetamide], the IC50 worked out at 13.2 nM.
For `CC(C)(CO)n1cc(C(=O)c2ccc(C#N)c(NC(=O)Cn3ccc(C(F)(F)F)n3)c2)c2cnc(N)nc21` [Example 11, N-(5-{[2-amino-7-(1-hydroxy-2-methylpropan-2-yl)-7H-pyrrolo[2,3-d]pyrimidin-5-yl]carbonyl}-2-cyanophenyl)-2-[3-(trifluoromethyl)-1H-pyrazol-1-yl]acetamide], the IC50 was found to be 11.5 nM.
As to `CC(C)(CO)n1cc(C(=O)c2ccc(C#N)c(NC(=O)Cn3cc(C(F)(F)F)nn3)c2)c2cnc(N)nc21` [Example 12, N-(5-{[2-amino-7-(1-hydroxy-2-methylpropan-2-yl)-7H-pyrrolo[2,3-d]pyrimidin-5-yl]carbonyl}-2-cyanophenyl)-2-[4-(trifluoromethyl)-1H-1,2,3-triazol-1-yl]acetamide], the IC50 was determined as 60.7 nM.
Take `C[C@@H](CO)n1cc(C(=O)c2cc(NC(=O)Cc3ccc(Cl)cn3)ccn2)c2cncnc21` [Example 13, 2-(5-chloropyridin-2-yl)-N-[2-({7-[(2S)-1-hydroxypropan-2-yl]-7H-pyrrolo[2,3-d]pyrimidin-5-yl}carbonyl)pyridin-4-yl]acetamide]: the IC50 was determined as 230 nM.
For `C[C@@H](CO)n1cc(C(=O)c2cc(NC(=O)Cn3ccc(C(F)(F)F)n3)ccn2)c2cncnc21` [Example 14, N-[2-({7-[(2S)-1-hydroxypropan-2-yl]-7H-pyrrolo[2,3-d]pyrimidin-5-yl}carbonyl)pyridin-4-yl]-2-[3-(trifluoromethyl)-1H-pyrazol-1-yl]acetamide] the value was 131 nM; for `C[C@@H](CO)n1cc(C(=O)c2cc(NC(=O)Cc3ccc(C#N)cc3)ccn2)c2cncnc21` [Example 15, 2-(4-cyanophenyl)-N-[2-({7-[(2S)-1-hydroxypropan-2-yl]-7H-pyrrolo[2,3-d]pyrimidin-5-yl}carbonyl)pyridin-4-yl]acetamide], 94.8 nM; for `C[C@@H](CO)n1cc(C(=O)c2cc(NC(=O)Cc3ccc(Cl)cc3)ccn2)c2cncnc21` [Example 16, 2-(4-chlorophenyl)-N-[2-({7-[(2S)-1-hydroxypropan-2-yl]-7H-pyrrolo[2,3-d]pyrimidin-5-yl}carbonyl)pyridin-4-yl]acetamide], 147 nM.
Consider `C[C@@H](CO)n1cc(C(=O)c2cc(NC(=O)Cc3ccc(C(F)(F)F)cc3)ccn2)c2cncnc21` [Example 17, N-[2-({7-[(2S)-1-hydroxypropan-2-yl]-7H-pyrrolo[2,3-d]pyrimidin-5-yl}carbonyl)pyridin-4-yl]-2-[4-(trifluoromethyl)phenyl]acetamide], for which the IC50 was 72.2 nM.
Take `C[C@@H](CO)n1cc(C(=O)c2cc(NC(=O)Cc3ccc(F)cn3)ccn2)c2cncnc21` [Example 18, 2-(5-fluoropyridin-2-yl)-N-[2-({7-[(2S)-1-hydroxypropan-2-yl]-7H-pyrrolo[2,3-d]pyrimidin-5-yl}carbonyl)pyridin-4-yl]acetamide]: the IC50 was 202 nM.
In the case of `C[C@H](CO)n1cc(C(=O)c2cc(NC(=O)Cc3cccc(C(F)(F)F)c3)ccn2)c2cncnc21` [Example 19, N-[2-({7-[(2R)-1-hydroxypropan-2-yl]-7H-pyrrolo[2,3-d]pyrimidin-5-yl}carbonyl)pyridin-4-yl]-2-[3-(trifluoromethyl)phenyl]acetamide], the IC50 came out at 97.6 nM.
`Cc1cc(C(F)(F)F)nn1CC(=O)Nc1ccnc(C(=O)c2cn([C@@H](C)CO)c3ncncc23)c1` [Example 20, N-[2-({7-[(2S)-1-hydroxypropan-2-yl]-7H-pyrrolo[2,3-d]pyrimidin-5-yl}carbonyl)pyridin-4-yl]-2-[5-methyl-3-(trifluoromethyl)-1H-pyrazol-1-yl]acetamide]: the concentration for half-maximal inhibition (IC50) worked out at 120 nM.
As for `Cc1cc(C(F)(F)F)nn1CC(=O)Nc1ccnc(C(=O)c2cn([C@H](C)CO)c3ncncc23)c1` [Example 21, N-[2-({7-[(2R)-1-hydroxypropan-2-yl]-7H-pyrrolo[2,3-d]pyrimidin-5-yl}carbonyl)pyridin-4-yl]-2-[5-methyl-3-(trifluoromethyl)-1H-pyrazol-1-yl]acetamide], the figure is 95.8 nM.
`C[C@H](CO)n1cc(C(=O)c2cc(NC(=O)Cc3ccc(C(F)(F)F)cc3)ccn2)c2cncnc21` [Example 22, N-[2-({7-[(2R)-1-hydroxypropan-2-yl]-7H-pyrrolo[2,3-d]pyrimidin-5-yl}carbonyl)pyridin-4-yl]-2-[4-(trifluoromethyl)phenyl]acetamide]: the half-inhibitory concentration (IC50) is 59.5 nM.
As for `C[C@H](CO)n1cc(C(=O)c2cc(NC(=O)Cc3ccc(C#N)cc3)ccn2)c2cncnc21` [Example 23, 2-(4-cyanophenyl)-N-[2-({7-[(2R)-1-hydroxypropan-2-yl]-7H-pyrrolo[2,3-d]pyrimidin-5-yl}carbonyl)pyridin-4-yl]acetamide], the figure is 79.1 nM.
With `C[C@@H](CO)n1cc(C(=O)c2cc(NC(=O)Cc3cccc(C(F)(F)F)c3)ccn2)c2cncnc21` [Example 24, N-[2-({7-[(2S)-1-hydroxypropan-2-yl]-7H-pyrrolo[2,3-d]pyrimidin-5-yl}carbonyl)pyridin-4-yl]-2-[3-(trifluoromethyl)phenyl]acetamide], the IC50 was determined as 59.8 nM.
As for `C[C@H](CO)n1cc(C(=O)c2cc(NC(=O)Cc3ccc(Cl)cn3)ccn2)c2cncnc21` [Example 25, 2-(5-chloropyridin-2-yl)-N-[2-({7-[(2R)-1-hydroxypropan-2-yl]-7H-pyrrolo[2,3-d]pyrimidin-5-yl}carbonyl)pyridin-4-yl]acetamide], the figure is 363 nM.
For `C[C@H](CO)n1cc(C(=O)c2cc(NC(=O)Cn3ccc(C(F)(F)F)n3)ccn2)c2cncnc21` [Example 26, N-[2-({7-[(2R)-1-hydroxypropan-2-yl]-7H-pyrrolo[2,3-d]pyrimidin-5-yl}carbonyl)pyridin-4-yl]-2-[3-(trifluoromethyl)-1H-pyrazol-1-yl]acetamide] the value was 24.5 nM.
As for `C[C@H](CO)n1cc(C(=O)c2cc(NC(=O)Cc3ccc(F)cn3)ccn2)c2cncnc21` [Example 27, 2-(5-fluoropyridin-2-yl)-N-[2-({7-[(2R)-1-hydroxypropan-2-yl]-7H-pyrrolo[2,3-d]pyrimidin-5-yl}carbonyl)pyridin-4-yl]acetamide], the figure is 139 nM; as for `C[C@H](CO)n1cc(C(=O)c2cc(NC(=O)Cc3ccc(Cl)cc3)ccn2)c2cncnc21` [Example 28, 2-(4-chlorophenyl)-N-[2-({7-[(2R)-1-hydroxypropan-2-yl]-7H-pyrrolo[2,3-d]pyrimidin-5-yl}carbonyl)pyridin-4-yl]acetamide], 111 nM; as for `CC(C)c1cn(CC(=O)Nc2ccnc(C(=O)c3cn([C@@H](C)CO)c4ncncc34)c2)nn1` [Example 29, N-[2-({7-[(2S)-1-hydroxypropan-2-yl]-7H-pyrrolo[2,3-d]pyrimidin-5-yl}carbonyl)pyridin-4-yl]-2-[4-(propan-2-yl)-1H-1,2,3-triazol-1-yl]acetamide], 74.2 nM.
Take `C[C@@H](CO)n1cc(C(=O)c2cc(NC(=O)Cn3cc(C4CC4)nn3)ccn2)c2cncnc21` [Example 30, 2-(4-cyclopropyl-1H-1,2,3-triazol-1-yl)-N-[2-({7-[(2S)-1-hydroxypropan-2-yl]-7H-pyrrolo[2,3-d]pyrimidin-5-yl}carbonyl)pyridin-4-yl]acetamide]: the IC50 stood at 89.7 nM.
As for `C[C@@H](CO)n1cc(C(=O)c2cc(NC(=O)Cn3cc(C(F)(F)F)nn3)ccn2)c2cncnc21` [Example 31, N-[2-({7-[(2S)-1-hydroxypropan-2-yl]-7H-pyrrolo[2,3-d]pyrimidin-5-yl}carbonyl)pyridin-4-yl]-2-[4-(trifluoromethyl)-1H-1,2,3-triazol-1-yl]acetamide], the IC50 was 78.1 nM.
